# Assay results from patent publication US12528802B2, “Heterocyclic compound” (Takeda Pharmaceutical Company Limited, priority 2019, dated 2026).
# Target: T1, glucosylceramide synthase (Homo sapiens, UniProt Q16739)
# T1 construct: made in house; host or cells: Expi293F cells (transient expression, pcDNA3.3-TOPO vector); microsome fraction used as enzyme source
# T1 sequence (Q16739 1-394): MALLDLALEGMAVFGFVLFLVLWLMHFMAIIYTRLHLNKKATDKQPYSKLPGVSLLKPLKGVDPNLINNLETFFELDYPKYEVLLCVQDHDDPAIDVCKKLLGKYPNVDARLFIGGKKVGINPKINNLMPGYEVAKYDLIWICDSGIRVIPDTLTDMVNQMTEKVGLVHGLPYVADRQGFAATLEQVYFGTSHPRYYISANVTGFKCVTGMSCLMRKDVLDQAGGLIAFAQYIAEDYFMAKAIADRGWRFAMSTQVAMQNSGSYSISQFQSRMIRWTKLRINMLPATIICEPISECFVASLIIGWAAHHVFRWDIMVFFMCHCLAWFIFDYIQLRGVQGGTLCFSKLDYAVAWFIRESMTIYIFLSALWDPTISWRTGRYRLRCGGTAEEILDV
# Assay: Glucosylceramide synthase (GCS) enzyme assay, microsome fraction, C8 glucosylceramide quantified by Rapidfire MS/MS
# Type: biochemical
# Conditions: test compound 10 μM; 1.7 μM UDP-glucose, 3 μM C8 ceramide; room temperature 60 min; read-out: GCS enzyme inhibitory rate at 10 μM (%) (% of control)
# Method in brief: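 Test compound, 10 μM final, was run against human GCS from transfected Expi293F microsome fractions, using substrate solution of 6 μM C8 ceramide (in DOPC liposomes) plus 3.4 μM UDP-glucose, pH 7.5 Tris buffer, 60 min, room temperature. Product C8 glucosylceramide measured by Rapidfire MS/MS against an internal standard, % inhibition referenced to no-enzyme and DMSO wells.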
row,inhibition at 10 µM [%],Structure (SMILES)
1,99,"O=C1c2ccnc(-c3ccncc3OCC(F)(F)F)c2CN1c1ccc(C2(F)COC2)cc1 [Example 294, 2-[4-(3-fluorooxetan-3-yl)phenyl]-4-[3-(2,2,2-trifluoroethoxy)pyridin-4-yl]-2,3-dihydro-1H-pyrrolo [3,4-c]pyridin-1-one]"
2,100,"CC(C)(O)COc1ccc(N2Cc3c(ccnc3-c3ccccc3OCC(F)(F)F)C2=O)nc1 [Example 297, 2-[5-(2-hydroxy-2-methylpropoxy)pyridin-2-yl]-4-[2-(2,2,2-trifluoroethoxy)phenyl]-2,3-dihydro-1H-pyrrolo[3,4-c]pyridin-1-one]"
3,98,"CC(C)(O)COc1cnc(N2Cc3c(ccnc3-c3ccccc3OCC(F)(F)F)C2=O)cn1 [Example 298, 2-[5-(2-hydroxy-2-methylpropoxy)pyrazin-2-yl]-4-[2-(2,2,2-trifluoroethoxy)phenyl]-2,3-dihydro-1H-pyrrolo[3,4-c]pyridin-1-one]"
4,97,"CC(C)(O)COc1cnc(N2Cc3c(ccnc3-c3ccc(F)cc3OCC(F)(F)F)C2=O)cn1 [Example 299, 4-[4-fluoro-2-(2,2,2-trifluoroethoxy)phenyl]-2-[5-(2-hydroxy-2-methylpropoxy)pyrazin-2-yl]-2,3-dihydro-1H-pyrrolo [3,4-c]pyridin-1-one]"
5,92,"N#CC1(c2ccc(N3Cc4c(ccnc4-c4ccc(F)cc4OCC(F)F)C3=O)cc2)CC1 [Example 302, 1-(4-{4-[2-(2,2-difluoroethoxy)-4-fluorophenyl]-1-oxo-1,3-dihydro-2H-pyrrolo[3,4-c]pyridin-2-yl}phenyl) cyclopropane-1-carbonitrile]"
6,100,"CC(C)(C#N)c1ccc(N2Cc3c(ccnc3-c3ccc(F)cc3OCC(F)F)C2=O)cc1 [Example 303, 2-(4-{4-[2-(2,2-difluoroethoxy)-4-fluorophenyl]-1-oxo-1,3-dihydro-2H-pyrrolo[3,4-c]pyridin-2-yl}phenyl)-2-methylpropanenitrile]"
7,99,"N#CC1(c2ccc(N3Cc4c(ccnc4-c4ccccc4OCC(F)F)C3=O)cc2)CC1 [Example 304, 1-(4-{4-[2-(2,2-difluoroethoxy)phenyl]-1-oxo-1,3-dihydro-2H-pyrrolo[3,4-c]pyridin-2-yl}phenyl) cyclopropane-1-carbonitrile]"
8,99,"CC(C)(O)Cc1ccc(N2Cc3c(ccnc3-c3ccc(F)cc3OCC(F)(F)F)C2=O)cc1 [Example 305, 4-[4-fluoro-2-(2,2,2-trifluoroethoxy)phenyl]-2-[4-(2-hydroxy-2-methylpropyl)phenyl]-2,3-dihydro-1H-pyrrolo[3,4-c]pyridin-1-one]"
9,99,"CC(C)(O)COc1ccc(N2Cc3c(ccnc3-c3ccccc3OCC(F)F)C2=O)nc1 [Example 306, 4-[2-(2,2-difluoroethoxy)phenyl]-2-[5-(2-hydroxy-2-methylpropoxy)pyridin-2-yl]-2,3-dihydro-1H-pyrrolo [3,4-c]pyridin-1-one]"
10,91,"CC(C)(O)Cc1ccc(N2Cc3c(ccnc3-c3ccncc3OCC(F)(F)F)C2=O)cc1 [Example 307, 2-[4-(2-hydroxy-2-methylpropyl)phenyl]-4-[3-(2,2,2-trifluoroethoxy)pyridin-4-yl]-2,3-dihydro-1H-pyrrolo [3,4-c]pyridin-1-one]"
11,60,"Cn1nc(N2Cc3c(ccnc3-c3ccc(F)cc3OCC(F)(F)F)C2=O)cc1OC(F)F [Example 309, 2-[5-(difluoromethoxy)-1-methyl-1H-pyrazol-3-yl]-4-[4-fluoro-2-(2,2,2-trifluoroethoxy)phenyl]-2,3-dihydro-1H-pyrrolo[3,4-c]pyridin-1-one]"
12,99,"O=C1c2ccc(=O)n(-c3ccc(F)cc3OCC(F)(F)F)c2CN1c1ccc(OC(F)F)cn1 [Example 310, 6-[5-(difluoromethoxy)pyridin-2-yl]-1-[4-fluoro-2-(2,2,2-trifluoroethoxy)phenyl]-6,7-dihydro-1H-pyrrolo[3,4-b]pyridine-2,5-dione]"
13,99,"O=C1c2ccnc(-c3ccccc3OCC(F)(F)F)c2CN1c1ccc(C2(O)CC(F)(F)C2)nc1 [Example 316, 2-[6-(3,3-difluoro-1-hydroxycyclobutyl)pyridin-3-yl]-4-[2-(2,2,2-trifluoroethoxy)phenyl]-2,3-dihydro-1H-pyrrolo[3,4-c]pyridin-1-one]"
14,52,"Cn1nc(N2Cc3c(ccnc3-c3ccc(F)cc3OCC(F)(F)F)C2=O)cc1C#N [Example 318, 3-{4-[4-fluoro-2-(2,2,2-trifluoroethoxy)phenyl]-1-oxo-1,3-dihydro-2H-pyrrolo [3,4-c]pyridin-2-yl}-1-methyl-1H-pyrazole-5-carbonitrile]"
15,97,"CC(=O)c1ccc(N2Cc3c(ccnc3-c3c(F)cccc3OCC(F)(F)F)C2=O)cc1 [Example 319, 2-(4-acetylphenyl)-4-[2-fluoro-6-(2,2,2-trifluoroethoxy)phenyl]-2,3-dihydro-1H-pyrrolo[3,4-c]pyridin-1-one]"
16,99,"CC(C)(O)c1ccc(N2Cc3c(ccnc3-c3c(F)cc(F)cc3OCC(F)(F)F)C2=O)cc1 [Example 320, 4-[2,4-difluoro-6-(2,2,2-trifluoroethoxy)phenyl]-2-[4-(2-hydroxypropan-2-yl)phenyl]-2,3-dihydro-1H-pyrrolo[3,4-c]pyridin-1-one]"
17,100,"Cn1cc2c(c(-c3ccccc3OCC(F)(F)F)c1=O)CN(c1ccc(C(C)(C)O)cc1)C2=O [Example 321, 2-[4-(2-hydroxypropan-2-yl)phenyl]-5-methyl-7-[2-(2,2,2-trifluoroethoxy)phenyl]-1H-pyrrolo[3,4-c]pyridine-3,6(2H,5H)-dione]"
18,95,"CC(C)(O)c1ccc(N2Cc3c(ccnc3-c3cc(F)c(F)cc3OCC(F)(F)F)C2=O)cc1 [Example 322, 4-[4,5-difluoro-2-(2,2,2-trifluoroethoxy)phenyl]-2-[4-(2-hydroxypropan-2-yl)phenyl]-2,3-dihydro-1H-pyrrolo [3,4-c]pyridin-1-one]"
19,99,"CC(C)(O)c1ccc(N2Cc3c(ccnc3-c3cc(F)ccc3OCC(F)(F)F)C2=O)cc1 [Example 323, 4-[5-fluoro-2-(2,2,2-trifluoroethoxy)phenyl]-2-[4-(2-hydroxypropan-2-yl)phenyl]-2,3-dihydro-1H-pyrrolo[3,4-c]pyridin-1-one]"
20,99,"Cc1cc2c(c(-c3ccccc3OCC(F)(F)F)n1)CN(c1ccc(C(C)(C)O)nc1)C2=O [Example 326, 2-[6-(2-hydroxypropan-2-yl)pyridin-3-yl]-6-methyl-4-[2-(2,2,2-trifluoroethoxy)phenyl]-2,3-dihydro-1H-pyrrolo[3,4-c]pyridin-1-one]"
21,100,"CC(C)(O)c1ccc(N2Cc3c(cc(C(F)F)nc3-c3ccccc3OCC(F)(F)F)C2=O)cc1 [Example 327, 6-(difluoromethyl)-2-[4-(2-hydroxypropan-2-yl)phenyl]-4-[2-(2,2,2-trifluoroethoxy)phenyl]-2,3-dihydro-1H-pyrrolo[3,4-c]pyridin-1-one]"
22,100,"CC(C)(O)c1ccc(N2Cc3c(cc(C(F)F)nc3-c3ccccc3OCC(F)(F)F)C2=O)cn1 [Example 328, 6-(difluoromethyl)-2-[6-(2-hydroxypropan-2-yl)pyridin-3-yl]-4-[2-(2,2,2-trifluoroethoxy)phenyl]-2,3-dihydro-1H-pyrrolo[3,4-c]pyridin-1-one]"
